The test relates to PTH-induced hypercalcemia rats. Put plainly: Hypercalcemia inhibiting effect: serum Ca++ lowering in PTH-induced hypercalcemia rats. Type of test: in vivo, Wistar male rats. As to conditions: blood 45 min after PTH, mean ± S.E., N=5. The method, then: Typical effective ingredients according to the present invention were administered to parathyroid hormone (hereinafter referred to as "PTH")-induced hypercalcemia rats and, for each ingredient, the serum calcium level lowering effect was estimated. Test method: Human 1 to 34 PTH (obtained from the Peptide Institute) was intravenously administered at a dose of 30 µg/kg to 5-week-old Wistar male rats fasted for 20 hours. For the administration, PTH was dissolved in physiological saline containing 0.1% BSA (bovine serum albumin) and the solution was given to the rats in an amount of 5 ml/kg. The normal control group was given 0.1% BSA-containing physiological saline alone in the same manner. […] The blood samples were immediately centrifuged at 4°C, and 3,000 rpm (revolutions per minute) for 10 minutes. The thus-separated sera were measured for ionic calcium (Ca⁺⁺) concentration by means of a Ca⁺⁺ meter (Sera 250; Horiba Seisakusho).
The compounds according to the invention were dissolved, using sodium hydroxide and hydrochloric acid, in physiological saline (pH 7.4), for subcutaneous administration, in such amounts that the dose amounted to 2 ml/kg, and, for oral administration, in distilled water (pH 7.4) so that the dose amounted to 5 ml/kg. They were administered 24 or 72 hours before PTH administration. The normal control group and the control group were given physiological saline or distilled water in the same manner.
The results for each group were expressed in terms of mean ±S.E. (standard error) and comparison was made among the groups by testing by one-way analysis of variance. The significance level was taken at 5%.
The compound of Example 6 was administered 24 hours before PTH administration while other compounds were administered 72 hours before PTH administration.

Where [1] appears, read: oral administration, 10 mg/kg, 72 hours before PTH.
The mark [2] stands for this setting: oral administration, 30 mg/kg, 72 hours before PTH.
The mark [3] stands for this setting: oral administration, 100 mg/kg, 72 hours before PTH.
[4] abbreviates: subcutaneous administration, 0.1 mg/kg, 72 hours before PTH.
Setting [5] is: subcutaneous administration, 0.3 mg/kg, 72 hours before PTH.
Where [6] appears, read: subcutaneous administration, 1.0 mg/kg, 72 hours before PTH.

In the case of `O=P(O)(O)C(Nc1nccs1)P(=O)(O)O` [Example 6, [(2-thiazolyl)amino]methylenebis(phosphonic acid)], the “Serum Ca^++” value (oral administration, 10 mg/kg, 24 hours before PTH) was 1.58 ± 0.03 mmol/L; the “Serum Ca^++” value (oral administration, 30 mg/kg, 24 hours before PTH) was 1.54 ± 0.02 mmol/L; the “Serum Ca^++” value (oral administration, 100 mg/kg, 24 hours before PTH) was 1.45 ± 0.03 mmol/L; the “Serum Ca^++” value (subcutaneous administration, 0.1 mg/kg, 24 hours before PTH) is 1.49 ± 0.01 mmol/L; the “Serum Ca^++” value (subcutaneous administration, 0.3 mg/kg, 24 hours before PTH) is 1.45 ± 0.01 mmol/L; the “Serum Ca^++” value (subcutaneous administration, 1.0 mg/kg, 24 hours before PTH) was 1.41 ± 0.01 mmol/L.

In the case of `Cc1cnc(NC(P(=O)(O)O)P(=O)(O)O)o1` [Example 10, [(5-methyl-2-oxazolyl)amino]methylene bis(phosphonic acid)], the “Serum Ca^++” value is recorded as 1.42 ± 0.03 m moles/liter under setting [1]; 1.27 ± 0.03 m moles/liter under setting [2]; 1.15 ± 0.04 m moles/liter under setting [3]; 1.46 ± 0.01 m moles/liter (subcutaneous administration, 0.03 mg/kg, 72 hours before PTH (30 µg/kg i.v.)); 1.29 ± 0.01 m moles/liter under setting [4].

Turning to `Cc1cnc(NC(P(=O)(O)O)P(=O)(O)O)s1` [Example 20, [(5-Methyl-2-thiazolyl)amino]methylene bis(phosphonic acid)], the “Serum Ca^++” value reads like this: under setting [1], 1.39 ± 0.01 mmol/L; under setting [2], 1.25 ± 0.01 mmol/L; under setting [3], 1.12 ± 0.0 mmol/L; under setting [4], 0.95 ± 0.01 m moles/liter; under setting [5], 0.93 ± 0.03 m moles/liter; under setting [6], 0.92 ± 0.03 m moles/liter.

As to `Cc1nc(NC(P(=O)(O)O)P(=O)(O)O)sc1C` [Example 21, [(4,5-Dimethyl-2-thiazolyl)amino]methylene bis(phosphonic acid)], the “Serum Ca^++” value by setting is: under setting [4], 1.48 ± 0.01 mmol/L; under setting [5], 1.40 ± 0.01 mmol/L; under setting [6], 1.30 ± 0.02 mmol/L.

These data come from patent EP0282309A2, “Azole-aminomethylene bisphosphonic acid derivatives” (YAMANOUCHI PHARMACEUTICAL CO. LTD., priority 1987, dated 1988).
